Results on seven molecules are retold here after US20240398805A1, “QUINAZOLINE DERIVED COMPOUNDS AS EGFR INHIBITORS AND THEIR USES THEREOF” (ACCUTAR BIOTECHNOLOGY INC., priority 2021, published 2024).

Common to all, as to format: cell-based
One assay deals with A431 cells. The experiment in a line: Cell growth inhibition (CellTiter-Glo, 3 days) in A431. Particulars: Homo sapiens, A-431, 72 h, 3 days after administration. Put shortly: (§1)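 HCC827 cells were plated at 5000 cells/well in RPMI with 10% FBS, and A431 cells at the same density in DMEM with 10% FBS. After overnight attachment, compounds were added at various concentrations. Luminescence was recorded after plates were equilibrated to room temperature and incubated 10 min with reagent.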
In general terms: In ATP-based viability assays light output follows the ATP content of the culture.

Assay [1] concerns HCC827-ASV cells (human EGFR exon 20 insertion mutant A769_D770insASV). Put plainly: Cell growth inhibition (CellTiter-Glo, 3 days) in HCC827-ASV. The conditions noted are these: 72 h, 3 days after administration. In outline:
(§2)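 HCC827 cells lentivirally transduced with codon-optimized ASV or YVMA insertion mutants were seeded at 5000 cells/well in RPMI with 10% FBS and incubated overnight. Compound was added at various concentrations from a 10× stock in medium, with 3 days' incubation. Viability read by CellTiter-Glo luminescence.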

Assay [2] has as its system HCC827-SVD cells (human EGFR exon 20 insertion mutant D770_N771 insSVD). The experiment in a line: Cell growth inhibition (CellTiter-Glo, 3 days) in HCC827-SVD. The conditions noted are these: 72 h, 3 days after administration. In outline:
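HCC827 cells carrying lentiviral codon-optimized EGFR D770_N771 insSVD, with endogenous EGFR knocked out by CRISPR (single clone), seeded at 5000 cells/well in RPMI with 10% FBS. Viability read by CellTiter-Glo luminescence.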

Assay [3] relates to HCC827-YVMA cells (human ERBB2 exon20 insertion mutant A775_G776ins YVMA). Put plainly: Cell growth inhibition (CellTiter-Glo, 3 days) in HCC827-YVMA. Particulars: 72 h, 3 days after administration. In outline: as §2
A further assay relates to HCC827 cells. Put plainly: Cell growth inhibition (CellTiter-Glo, 3 days) in HCC827. Particulars: Homo sapiens, 72 h, 3 days after administration. Put shortly: as §1

The term GI50 denotes the concentration that inhibits growth by half. Lower therefore signals greater sensitivity of the cells.

As for `C=CC(=O)N1CCC(Nc2cc3c(Nc4ccc(Oc5ccnc(N6CCC(OC)CC6)c5)cc4F)ncnc3cc2OC)CC1` [Example 104, 1-(4-((4-((2-fluoro-4-((2-(4-methoxypiperidin-1-yl)pyridin-4-yl)oxy)phenyl)amino)-7-methoxyquinazolin-6-yl)amino)piperidin-1-yl)prop-2-en-1-one], the concentration for 50% growth inhibition (GI50) was not below 1 µM in the assay on A431 cells; less than 0.03 µM in assay [1]; less than 0.03 µM in assay [2]; less than 0.03 µM in assay [3]; 0.1 to 0.3 µM with HCC827 cells.

Regarding `C=CC(=O)N1CCC(Nc2cc3c(Nc4ccc(Oc5ccnc(N6C[C@H](C)O[C@@H](C)C6)c5)cc4F)ncnc3cc2OC)CC1` [Example 105, 1-(4-((4-((4-((2-((2S,6S)-2,6-dimethylmorpholino)pyridin-4-yl)oxy)-2-fluorophenyl)amino)-7-methoxyquinazolin-6-yl)amino)piperidin-1-yl)prop-2-en-1-one], the GI50 was not below 1 µM in the assay on A431 cells; less than 0.03 µM in assay [1]; less than 0.03 µM in assay [2]; less than 0.03 µM in assay [3]; 0.3 to 0.6 µM in the assay on HCC827 cells.

Regarding `C=CC(=O)N1CCC(Nc2cc3c(Nc4ccc(Oc5ccnc(N6CCCOCC6)c5)cc4F)ncnc3cc2OC)CC1` [Example 106, 1-(4-((4-((4-((2-(1,4-oxazepan-4-yl)pyridin-4-yl)oxy)-2-fluorophenyl)amino)-7-methoxyquinazolin-6-yl)amino)piperidin-1-yl)prop-2-en-1-one], the GI50 is not below 1 µM in the assay on A431 cells; less than 0.03 µM in assay [1]; less than 0.03 µM in assay [2]; less than 0.03 µM in assay [3]; 0.1 to 0.3 µM in the assay on HCC827 cells.

On to `C=CC(=O)N1CCC(Nc2cc3c(Nc4ccc(OCc5ccc(N6CCOCC6)cn5)cc4F)ncnc3cc2OC)CC1` [Example 107, 1-(4-((4-((2-fluoro-4-((5-morpholinopyridin-2-yl)methoxy)phenyl)amino)-7-methoxyquinazolin-6-yl)amino)piperidin-1-yl)prop-2-en-1-one], for which the 50% growth inhibitory concentration (GI50) was in the range of 0.3 to 0.6 µM in the assay on A431 cells; 0.3 to 0.6 µM in assay [1]; 0.6 to 1 µM in assay [2]; 0.3 to 0.6 µM in assay [3]; 0.1 to 0.3 µM in the assay with HCC827 cells.

With `C=CC(=O)N1CCC(Nc2cc3c(Nc4ccc(Oc5cc(N6C[C@@H](C)O[C@@H](C)C6)ncc5Cl)cc4F)ncnc3cc2OC)CC1` [Example 108, 1-(4-((4-((4-((5-chloro-2-((2R,6S)-2,6-dimethylmorpholino)pyridin-4-yl)oxy)-2-fluorophenyl)amino)-7-methoxyquinazolin-6-yl)amino)piperidin-1-yl)prop-2-en-1-one], the GI50 was not below 1 µM in the assay on A431 cells; 0.1 to 0.3 µM in assay [1]; 0.3 to 0.6 µM in assay [2]; 0.1 to 0.3 µM in assay [3]; 0.3 to 0.6 µM with HCC827 cells.

Take `C=CC(=O)N1CCC(Nc2cc3c(Nc4ccc(Oc5ccnn5-c5cnc(OC)c(F)c5)cc4F)ncnc3cc2OC)CC1` [Example 109, 1-(4-((4-((2-fluoro-4-((1-(5-fluoro-6-methoxypyridin-3-yl)-1H-pyrazol-5-yl)oxy)phenyl)amino)-7-methoxyquinazolin-6-yl)amino)piperidin-1-yl)prop-2-en-1-one]: the GI50 in the assay on A431 cells was not below 1 µM; in assay [1], not below 1 µM; in assay [2] it was not below 1 µM; in assay [3] it was not below 1 µM; in the assay on HCC827 cells, less than 0.03 µM.

`C=CC(=O)N1CCC(Nc2cc3c(Nc4ccc(Oc5ncc(N6C[C@@H](C)O[C@@H](C)C6)cn5)cc4F)ncnc3cc2OC)CC1` [Example 110, 1-(4-((4-((4-((5-((2R,6S)-2,6-dimethylmorpholino)pyrimidin-2-yl)oxy)-2-fluorophenyl)amino)-7-methoxyquinazolin-6-yl)amino)piperidin-1-yl)prop-2-en-1-one]: the 50% growth inhibitory concentration (GI50) was 0.1 to 0.3 µM with A431 cells; not below 1 µM in assay [1]; not below 1 µM in assay [2]; not below 1 µM in assay [3]; less than 0.03 µM in the assay with HCC827 cells.
